Measured values as given in ChEMBL document CHEMBL3885861, “Open TG-GATES”.

Species on record: Rattus norvegicus
Test: Open TG-GATES - Regimen: Daily Repeat
Assay type: toxicity, organism-based, Sprague-Dawley
Parameters: regimen Daily Repeat, gender Male, age 6 weeks
Settings: in vivo, iv, route intravenous injection; for gamma-GTP / ALP / ALT / AST / BUN / CRE / DBIL / GLC / IP / K / LDH / PL / RALB / TBIL / TC / TP / TG: tissue Plasma; for APTT / Bas / Eos / Fbg / Hb / Ht / Lym / MCH / MCHC / Mono / Neu / PT / Plat / RBC / Ret / WBC / MCV: tissue Blood; for KIDNEY_L / KIDNEY_R / KIDNEY_TOTAL: tissue Kidney; for LIVER: tissue Liver
[1] = 30 mg/kg, 72 h, dose level Middle, time 3 day
[2] = 30 mg/kg, […], dose level Middle, time 7 day
[3] = 30 mg/kg, […], dose level Middle, time 14 day
[4] = 30 mg/kg, […], dose level Middle, time 28 day
[5] = 100 mg/kg, 72 h, dose level High, time 3 day
[6] = 100 mg/kg, […], dose level High, time 7 day
[7] = 100 mg/kg, […], dose level High, time 14 day
[8] = 100 mg/kg, […], dose level High, time 28 day

## GENTAMICIN
10 mg/kg, […], dose level Low, time 28 day
  gamma-GTP: 2 IU/L
[1]
  TERMINAL_BW: 231.1 g
  APTT: 22 s
  Bas: 0%
  Eos: 1%
  Fbg: 292.8 mg/dL
  Hb: 12.8 g/dL
  Ht: 37.4%
  Lym: 75.4%
  MCH: 21 pg
  MCHC: 34.2%
  Mono: 3.2%
  Neu: 19.8%
  PT: 16.5 s
  Plat: 116.2 x10_4/uL
  RBC: 608.6 x10_4/ul
  Ret: 5.4%
  WBC: 99.7 x10_2/uL
  KIDNEY_L: 1 g
  KIDNEY_R: 1 g
  KIDNEY_TOTAL: 2 g
  ALP: 1568.4 IU/L
  ALT: 38.4 IU/L
  AST: 70.6 IU/L
  BUN: 19 mg/dL
  CRE: 0.2 mg/dL
  DBIL: 0 mg/dL
  GLC: 170.6 mg/dL
  IP: 6.8 mg/dL
  K: 4.7 meq/L
  LDH: 175 IU/L
  PL: 147.8 mg/dL
  RALB: 3 g/dL
  TBIL: 0.008 mg/dL
  TC: 69.2 mg/dL
  TP: 5.4 g/dL
  gamma-GTP: 1.8 IU/L
[2]
  TERMINAL_BW: 256.1 g
  APTT: 24.3 s
  Bas: 0%
  Eos: 1.2%
  Fbg: 303.4 mg/dL
  Ht: 39%
  Lym: 75%
  MCH: 21 pg
  MCHC: 34.7%
  MCV: 60.6 fL
  Mono: 4%
  PT: 15.9 s
  Plat: 111.1 x10_4/uL
  RBC: 644.4 x10_4/ul
  Ret: 4.1%
  WBC: 106.4 x10_2/uL
  KIDNEY_L: 1.1 g
  KIDNEY_R: 1.1 g
  KIDNEY_TOTAL: 2.1 g
  LIVER: 10.8 g
  ALP: 1481.6 IU/L
  ALT: 40.6 IU/L
  BUN: 17 mg/dL
  CRE: 0.2 mg/dL
  DBIL: 0 mg/dL
  GLC: 174.8 mg/dL
  IP: 6.1 mg/dL
  K: 4.5 meq/L
  LDH: 152.6 IU/L
  PL: 146.8 mg/dL
  RALB: 3 g/dL
  TBIL: 0.006 mg/dL
  TC: 72 mg/dL
  TG: 131.4 mg/dL
  TP: 5.6 g/dL
  gamma-GTP: 1.6 IU/L
[3]
  TERMINAL_BW: 289.4 g
  APTT: 22.8 s
  Bas: 0%
  Eos: 0.8%
  Fbg: 296.4 mg/dL
  Ht: 40.3%
  Lym: 81.4%
  MCHC: 35.7%
  MCV: 58.2 fL
  Mono: 2.2%
  Plat: 106 x10_4/uL
  RBC: 693.6 x10_4/ul
  Ret: 3.2%
  WBC: 131.7 x10_2/uL
  KIDNEY_L: 1.2 g
  KIDNEY_R: 1.2 g
  KIDNEY_TOTAL: 2.4 g
  LIVER: 10.8 g
  ALP: 1265.2 IU/L
  ALT: 36.8 IU/L
  AST: 67.6 IU/L
  CRE: 0.2 mg/dL
  DBIL: 0 mg/dL
  GLC: 176.4 mg/dL
  IP: 5.9 mg/dL
  K: 4.3 meq/L
  LDH: 144.8 IU/L
  PL: 140.2 mg/dL
  RALB: 3 g/dL
  TBIL: 0.008 mg/dL
  TC: 68.6 mg/dL
  TG: 114 mg/dL
  TP: 5.7 g/dL
  gamma-GTP: 1.8 IU/L
[4]
  TERMINAL_BW: 356.8 g
  APTT: 23.3 s
  Bas: 0%
  Eos: 0.8%
  Fbg: 308 mg/dL
  Hb: 15.3 g/dL
  Ht: 42.9%
  Lym: 80.4%
  MCH: 19.2 pg
  MCHC: 35.7%
  MCV: 53.7 fL
  Mono: 2.4%
  Plat: 107.2 x10_4/uL
  RBC: 799 x10_4/ul
  Ret: 1.8%
  WBC: 106 x10_2/uL
  KIDNEY_L: 1.5 g
  KIDNEY_R: 1.6 g
  KIDNEY_TOTAL: 3.1 g
  LIVER: 12.3 g
  ALP: 959 IU/L
  ALT: 31 IU/L
  CRE: 0.3 mg/dL
  DBIL: 0.002 mg/dL
  GLC: 176.4 mg/dL
  IP: 5.6 mg/dL
  K: 4.2 meq/L
  LDH: 109.8 IU/L
  PL: 130 mg/dL
  RALB: 3 g/dL
  TBIL: 0.01 mg/dL
  TC: 68.4 mg/dL
  TG: 103 mg/dL
  TP: 5.8 g/dL
  gamma-GTP: 2.2 IU/L
[5]
  TERMINAL_BW: 229.2 g
  APTT: 22 s
  Bas: 0%
  Eos: 1%
  Fbg: 294.4 mg/dL
  Ht: 38.2%
  Lym: 80.8%
  MCH: 21 pg
  MCHC: 34.3%
  MCV: 61.1 fL
  Mono: 3.8%
  Neu: 13%
  PT: 16.5 s
  Plat: 115 x10_4/uL
  RBC: 625.8 x10_4/ul
  Ret: 4.8%
  WBC: 83.9 x10_2/uL
  KIDNEY_L: 1 g
  KIDNEY_R: 1 g
  KIDNEY_TOTAL: 2 g
  LIVER: 10 g
  ALP: 1437 IU/L
  AST: 67.4 IU/L
  CRE: 0.2 mg/dL
  DBIL: 0 mg/dL
  GLC: 170 mg/dL
  IP: 6.8 mg/dL
  K: 4.7 meq/L
  LDH: 137.2 IU/L
  PL: 131.4 mg/dL
  RALB: 3 g/dL
  TBIL: 0.014 mg/dL
  TC: 64.8 mg/dL
  TG: 100 mg/dL
  TP: 5.5 g/dL
  gamma-GTP: 1.4 IU/L
[6]
  TERMINAL_BW: 262.4 g
  APTT: 24.3 s
  Bas: 0%
  Eos: 1.2%
  Fbg: 314.2 mg/dL
  Lym: 77.6%
  MCHC: 34.5%
  MCV: 60.6 fL
  Mono: 4.2%
  Plat: 106.7 x10_4/uL
  RBC: 646.4 x10_4/ul
  Ret: 4.3%
  WBC: 117.3 x10_2/uL
  KIDNEY_L: 1.2 g
  KIDNEY_R: 1.2 g
  KIDNEY_TOTAL: 2.5 g
  LIVER: 10.9 g
  ALP: 1249 IU/L
  ALT: 39.8 IU/L
  AST: 73 IU/L
  CRE: 0.2 mg/dL
  DBIL: 0 mg/dL
  GLC: 182.6 mg/dL
  IP: 6 mg/dL
  K: 4.6 meq/L
  LDH: 158.8 IU/L
  PL: 139.8 mg/dL
  RALB: 3 g/dL
  TBIL: 0.004 mg/dL
  TC: 71 mg/dL
  TG: 91.4 mg/dL
  TP: 5.6 g/dL
  gamma-GTP: 2 IU/L
[7]
  TERMINAL_BW: 275.2 g
  APTT: 23.3 s
  Bas: 0%
  Eos: 1%
  Fbg: 320.8 mg/dL
  Lym: 83%
  MCH: 21.1 pg
  MCHC: 36.2%
  MCV: 58.1 fL
  Mono: 3%
  PT: 16.4 s
  Plat: 114.3 x10_4/uL
  RBC: 701.8 x10_4/ul
  Ret: 1.8%
  WBC: 106.6 x10_2/uL
  KIDNEY_L: 1.5 g
  KIDNEY_R: 1.5 g
  KIDNEY_TOTAL: 3 g
  LIVER: 10.2 g
  ALP: 1114.5 IU/L
  ALT: 33.5 IU/L
  AST: 71.8 IU/L
  BUN: 20 mg/dL
  CRE: 0.3 mg/dL
  DBIL: 0 mg/dL
  IP: 6 mg/dL
  K: 4.2 meq/L
  PL: 148.8 mg/dL
  RALB: 3.1 g/dL
  TBIL: 0.015 mg/dL
  TC: 81.8 mg/dL
  TG: 98.2 mg/dL
  TP: 5.7 g/dL
  gamma-GTP: 2.5 IU/L
[8]
  TERMINAL_BW: 315.6 g
  APTT: 23.9 s
  Bas: 0%
  Eos: 1.2%
  Fbg: 282.2 mg/dL
  Hb: 14.7 g/dL
  Ht: 40.7%
  Lym: 83.5%
  MCH: 19 pg
  MCHC: 36.1%
  MCV: 52.6 fL
  Mono: 2.2%
  Neu: 11.5%
  PT: 16.5 s
  Plat: 118.3 x10_4/uL
  RBC: 773 x10_4/ul
  Ret: 1.3%
  WBC: 112.9 x10_2/uL
  KIDNEY_L: 1.6 g
  KIDNEY_R: 1.7 g
  KIDNEY_TOTAL: 3.3 g
  ALP: 662.5 IU/L
  AST: 67 IU/L
  BUN: 18 mg/dL
  CRE: 0.3 mg/dL
  DBIL: 0 mg/dL
  IP: 5.8 mg/dL
  K: 3.6 meq/L
  LDH: 109.2 IU/L
  PL: 112 mg/dL
  RALB: 3.1 g/dL
  TBIL: 0.03 mg/dL
  TC: 67 mg/dL
  TG: 40 mg/dL
  TP: 5.9 g/dL
  gamma-GTP: 2.5 IU/L
